Assay results from patent publication US20180244611A1, “Modulators of the Cystic Fibrosis Transmembrane Conductance Regulator Protein and Methods of Use” (AbbVie S.à.r.l., priority 2017, published 2018).

Key:
F508delCFTR [1] = target: T1, F508delCFTR (Homo sapiens, UniProt P13569, DEL508-508); assay: Cell Surface Expression-Horse Radish Peroxidase (CSE-HRP) assay, test compound without co-corrector; assay type: cell-based; conditions: for Emax: maximum at any tested concentration, normalized to positive control, without co-corrector; for EC50: test compound without co-corrector;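 as to Emax: percent of on-plate 2 µM positive control corrector response over DMSO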
T1 construct: expressed in transfected cells; host or cells: CFBE41o- human lung-derived epithelial cells (CFBE41o-F508delCFTR-HRP), doxycycline-inducible
T1 sequence (P13569 with tags, fused parts or gaps DEL508-508): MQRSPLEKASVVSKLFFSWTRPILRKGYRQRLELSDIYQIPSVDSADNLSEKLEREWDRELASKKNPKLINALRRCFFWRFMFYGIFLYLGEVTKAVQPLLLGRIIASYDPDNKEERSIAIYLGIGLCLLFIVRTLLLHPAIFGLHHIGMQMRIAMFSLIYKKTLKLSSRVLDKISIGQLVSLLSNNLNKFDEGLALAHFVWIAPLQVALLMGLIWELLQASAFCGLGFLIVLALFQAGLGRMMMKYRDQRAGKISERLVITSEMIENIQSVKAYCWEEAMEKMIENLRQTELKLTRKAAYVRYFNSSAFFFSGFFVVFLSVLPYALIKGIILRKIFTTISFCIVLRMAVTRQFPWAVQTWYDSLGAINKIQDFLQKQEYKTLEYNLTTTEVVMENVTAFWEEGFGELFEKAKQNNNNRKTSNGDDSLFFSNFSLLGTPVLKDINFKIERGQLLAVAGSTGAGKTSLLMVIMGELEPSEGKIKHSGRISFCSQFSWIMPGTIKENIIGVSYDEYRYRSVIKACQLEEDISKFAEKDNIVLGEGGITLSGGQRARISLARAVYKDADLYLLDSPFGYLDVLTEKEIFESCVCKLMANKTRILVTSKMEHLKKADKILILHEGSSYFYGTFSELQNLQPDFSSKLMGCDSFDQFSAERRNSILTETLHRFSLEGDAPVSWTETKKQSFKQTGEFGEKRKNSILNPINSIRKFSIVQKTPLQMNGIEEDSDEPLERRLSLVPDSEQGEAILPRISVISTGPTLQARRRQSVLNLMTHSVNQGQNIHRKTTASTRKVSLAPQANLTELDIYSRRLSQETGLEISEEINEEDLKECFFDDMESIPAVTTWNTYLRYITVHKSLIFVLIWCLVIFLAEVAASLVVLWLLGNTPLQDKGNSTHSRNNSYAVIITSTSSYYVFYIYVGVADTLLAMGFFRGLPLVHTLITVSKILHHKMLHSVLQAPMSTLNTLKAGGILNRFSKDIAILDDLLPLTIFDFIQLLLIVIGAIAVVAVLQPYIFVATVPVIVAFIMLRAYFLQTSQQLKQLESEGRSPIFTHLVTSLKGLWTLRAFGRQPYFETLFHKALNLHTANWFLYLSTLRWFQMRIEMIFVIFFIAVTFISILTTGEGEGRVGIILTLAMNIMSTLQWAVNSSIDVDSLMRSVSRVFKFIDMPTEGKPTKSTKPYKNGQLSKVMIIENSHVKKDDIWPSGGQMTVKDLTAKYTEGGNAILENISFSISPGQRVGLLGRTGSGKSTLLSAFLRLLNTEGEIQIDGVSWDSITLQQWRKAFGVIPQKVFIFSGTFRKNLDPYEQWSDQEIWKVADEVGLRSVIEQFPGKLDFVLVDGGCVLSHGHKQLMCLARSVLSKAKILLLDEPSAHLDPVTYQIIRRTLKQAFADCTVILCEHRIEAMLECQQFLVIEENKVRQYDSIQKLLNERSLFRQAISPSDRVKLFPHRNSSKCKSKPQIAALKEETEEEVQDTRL
Protocol: (§1) Cell Surface Expression-Horse Radish Peroxidase (CSE-HRP) Assay
(§2) A cellular assay for measuring the F508delCFTR cell surface expression after correction with test compounds either without or with a co-corrector (2 μM of 3-[(2R,4R)-4-({[1-(2,2-difluoro-1,3-benzodioxol-5-yl)cyclopropyl]carbonyl}amino)-7-methoxy-3,4-dihydro-2H-chromen-2-yl]benzoic acid), was developed in human lung derived epithelial cell line (CFBE41o-) (Veit G et al, (2012) Mol Biol Cell. 23(21): 4188-4202). The development was achieved by expressing the F508delCFTR mutation along with a horseradish peroxidase (HRP) in the fourth exofacial loop, and then measuring the HRP activity using luminescence readout from these cells, CFBE41o-F508delCFTR-HRP, that were incubated overnight with the test corrector compounds, either without or with the co-corrector. For this primary assay, the CFBE41o-F508delCFTR-HRP cells were plated in 384-well plates (Greiner Bio-one; Cat 781080) at 4,000 cells/well along with 0.5 μg/mL doxycycline to induce the F508delCFTR-HRP expression and further incubated at 37° C., 5% CO2 for 72 hours. The test compounds were then added either without or with a co-corrector at the required concentrations and further incubated for 18-24 hours at 33° C. The highest concentration tested was 20 μM with an 8-point concentration response curve using a 3-fold dilution in both the test compound without or with the co-corrector. Three replicate plates were run to determine one EC50. All plates contained negative controls (dimethyl sulfoxide, DMSO) and positive control (2 μM of 3-[(2R,4R)-4-({[1-(2,2-difluoro-1,3-benzodioxol-5-yl)cyclopropyl]carbonyl}amino)-7-methoxy-3,4-dihydro-2H-chromen-2-yl]benzoic acid) as well as on-plate concentration response of the positive control. Post incubation, the plates were washed 5× times with Dulbecco's phosphate buffered saline (DPBS), followed by the addition of the HRP substrate, luminol (50 μL), and measuring the HRP activity using luminescence readout on EnVision® Multilabel Plate Reader (Perkin Elmer; product number 2104-0010). The raw counts from the experiment were analyzed using Accelrys® Assay Explorer v3.3.
(§3) Z′ greater than 0.5 was used as passing quality control criteria for the plates.
(§4) 1−[3*SDPositive Control+3*SDNegative Control/Absolute (MeanPositive Control−MeanNegative Control)]
(§5) wherein “SD” is standard deviation.
(§6) The % activity measured at each of the 8 test concentrations of the test compound added either without or with a co-corrector (2 μM of 3-[(2R,4R)-4-({[1-(2,2-difluoro-1,3-benzodioxol-5-yl)cyclopropyl]carbonyl}amino)-7-methoxy-3,4-dihydro-2H-chromen-2-yl]benzoic acid) was normalized to the on-plate positive control using the following formulae:
% activity (Test compound without co-corrector)=[(test compound without co-corrector response−DMSO response)/(positive control response−DMSO response)]*100%
(§7) The maximum % activity achieved for the test compound either without or with a co-corrector at any tested concentration is presented in Table 1 along with the respective EC50's calculated using the following general sigmoidal curve with variable Hill slope equation (described as Model 42 in the Accelrys® Assay Explorer v3.3 software):
(§8) General sigmoidal curve with concentration, response, top, bottom, EC50 and Hill slope. This model describes a sigmoidal curve with an adjustable baseline, a. The equation can be used to fit curves where response is either increasing or decreasing with respect to the independent variable, “x”.
“x” is a concentration of drug under test. “y” is the response. “a” is the maximum response, and “d” is the minimum response “c” is the inflection point (EC50) for the curve. That is, “y” is halfway between the lower and upper asymptotes when x=c. “b” is the slope-factor or Hill coefficient. The sign of b is positive when the response increases with increasing dose and is negative when the response decreases with increasing dose (inhibition). The data is presented with the qualifiers shown below: […]

F508delCFTR [2] = target: T1, F508delCFTR; assay: Cell Surface Expression-Horse Radish Peroxidase (CSE-HRP) assay, test compound with co-corrector; assay type: cell-based; conditions: with 2 μM co-corrector; for Maximum % activity (with co-corrector): maximum at any tested concentration, normalized to positive control;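 as to Maximum % activity (with co-corrector): percent of 2 µM positive control corrector over DMSO; co-corrector is that same compound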
Protocol: as §1, §2, §3, §4, §5, §6
activity (Test compound with co-corrector)=[(test compound with co-corrector response−DMSO response)/(positive control response−DMSO response)]*100
as §7, §8
“x” is a concentration of drug under test. “y” is the response. “a” is the maximum response, and “d” is the minimum response “c” is the inflection point (EC50) for the curve. That is, “y” is halfway between the lower and upper asymptotes when x=c. “b” is the slope-factor or Hill coefficient. The sign of b is positive when the response increases with increasing dose and is negative when the response decreases with increasing dose (inhibition).

| Emax (F508delCFTR [1]) [%] | EC50 (F508delCFTR [1]) [µM] | Maximum % activity (with co-corrector) (F508delCFTR [2]) | EC50 (F508delCFTR [2]) [µM] | Compound |
| --- | --- | --- | --- | --- |
| ≥ 150 | < 3 | +++ (≥350) | < 3 | COc1cccc2c1CCCC2(Cc1ccccc1)C(=O)NS(=O)(=O)c1cccc2ccccc12 (stereo not shown) [Example I-9, 1-benzyl-5-methoxy-N-(naphthalene-1-sulfonyl)-1,2,3,4-tetrahydronaphthalene-1-carboxamide] |
| ≥ 150 | 3 to 10 | +++ (≥350) | < 3 | CCC1(C(=O)NS(=O)(=O)c2cccc3ccccc23)CCCc2c(OC)cccc21 (stereo not shown) [Example I-10, 1-ethyl-5-methoxy-N-(naphthalene-1-sulfonyl)-1,2,3,4-tetrahydronaphthalene-1-carboxamide] |
| ≥ 150 | < 3 | +++ (≥350) | < 3 | O=C(NS(=O)(=O)c1cccc2ccccc12)[C@@H]1CCCc2cccc(Cl)c21 [Example I-11, (1R)-8-chloro-N-(naphthalene-1-sulfonyl)-1,2,3,4-tetrahydronaphthalene-1-carboxamide] |
| ≥ 150 | 3 to 10 | +++ (≥350) | < 3 | O=C(NS(=O)(=O)c1cccc2ccccc12)[C@H]1CCCc2cccc(Cl)c21 [Example I-12, (1S)-8-chloro-N-(naphthalene-1-sulfonyl)-1,2,3,4-tetrahydronaphthalene-1-carboxamide] |
| < 50 | ≥ 10 | ++ (≥150 and <350) | < 3 | CCC1(C(=O)NS(=O)(=O)c2cccc3c2OC(F)(F)O3)CCc2c(Cl)cccc21 (stereo not shown) [Example I-13, 4-chloro-N-(2,2-difluoro-2H-1,3-benzodioxole-4-sulfonyl)-1-ethyl-2,3-dihydro-1H-indene-1-carboxamide] |
| ≥ 150 | < 3 | +++ (≥350) | < 3 | CC1(C(=O)NS(=O)(=O)c2cccc3ccccc23)CCc2cccc(Cl)c21 (stereo not shown) [Example I-14, 7-chloro-1-methyl-N-(naphthalene-1-sulfonyl)-2,3-dihydro-1H-indene-1-carboxamide] |
| ≥ 150 | < 3 | +++ (≥350) | < 3 | COc1ccc(Br)c2c1CCCC2C(=O)NS(=O)(=O)c1cccc2ccccc12 (stereo not shown) [Example I-15, 8-bromo-5-methoxy-N-(naphthalene-1-sulfonyl)-1,2,3,4-tetrahydronaphthalene-1-carboxamide] |
| 50 to 150 | < 3 | +++ (≥350) | < 3 | O=C(NS(=O)(=O)c1cccc2ccccc12)C1(CCN2CCC(F)(F)C2)CCc2c(Cl)cccc21 (stereo not shown) [Example I-16, 4-chloro-1-[2-(3,3-difluoropyrrolidin-1-yl)ethyl]-N-(naphthalene-1-sulfonyl)-2,3-dihydro-1H-indene-1-carboxamide] |
| 50 to 150 | < 3 | +++ (≥350) | < 3 | CC[C@]1(C(=O)NS(=O)(=O)c2cccc3ccccc23)CCc2c(Cl)cccc21 [Example I-17, (1S)-4-chloro-1-ethyl-N-(naphthalene-1-sulfonyl)-2,3-dihydro-1H-indene-1-carboxamide] |
| ≥ 150 | < 3 | +++ (≥350) | < 3 | CC[C@@]1(C(=O)NS(=O)(=O)c2cccc3ccccc23)CCc2c(Cl)cccc21 [Example I-18, (1R)-4-chloro-1-ethyl-N-(naphthalene-1-sulfonyl)-2,3-dihydro-1H-indene-1-carboxamide] |
| ≥ 150 | 3 to 10 | +++ (≥350) | < 3 | COc1ccc(Br)c2c1C(C(=O)NS(=O)(=O)c1cccc3ccccc13)CC2 (stereo not shown) [Example I-19, 4-bromo-7-methoxy-N-(naphthalene-1-sulfonyl)-2,3-dihydro-1H-indene-1-carboxamide] |
| ≥ 150 | 3 to 10 | +++ (≥350) | 3 to 10 | C[C@]1(C(=O)NS(=O)(=O)c2cccc3ccccc23)CCc2c1ccc1c2OCO1 [Example I-20, (6S)-6-methyl-N-(naphthalene-1-sulfonyl)-7,8-dihydro-2H,6H-indeno[4,5-d][1,3]dioxole-6-carboxamide] |
| ≥ 150 | 3 to 10 | +++ (≥350) | 3 to 10 | C[C@@]1(C(=O)NS(=O)(=O)c2cccc3ccccc23)CCc2c1ccc1c2OCO1 [Example I-21, (6R)-6-methyl-N-(naphthalene-1-sulfonyl)-7,8-dihydro-2H,6H-indeno[4,5-d][1,3]dioxole-6-carboxamide] |
| ≥ 150 | 3 to 10 | +++ (≥350) | < 3 | COc1ccc2c(c1)[C@@](C)(C(=O)NS(=O)(=O)c1cccc3ccccc13)CC2 [Example I-22, (1S)-6-methoxy-1-methyl-N-(naphthalene-1-sulfonyl)-2,3-dihydro-1H-indene-1-carboxamide] |
| ≥ 150 | 3 to 10 | +++ (≥350) | < 3 | COc1ccc2c(c1)[C@](C)(C(=O)NS(=O)(=O)c1cccc3ccccc13)CC2 [Example I-23, (1R)-6-methoxy-1-methyl-N-(naphthalene-1-sulfonyl)-2,3-dihydro-1H-indene-1-carboxamide] |
| ≥ 150 | 3 to 10 | +++ (≥350) | < 3 | O=C(NS(=O)(=O)c1cccc2ccccc12)C1CCCc2c1ccc1c2OCO1 (stereo not shown) [Example I-24, N-(naphthalene-1-sulfonyl)-6,7,8,9-tetrahydro-2H-naphtho[1,2-d][1,3]dioxole-6-carboxamide] |
| ≥ 150 | < 3 | +++ (≥350) | < 3 | C[C@@]1(C(=O)NS(=O)(=O)c2cccc3ccccc23)CCc2cccc(Cl)c21 [Example I-27, (1R)-7-chloro-1-methyl-N-(naphthalene-1-sulfonyl)-2,3-dihydro-1H-indene-1-carboxamide] |
| ≥ 150 | < 3 | +++ (≥350) | < 3 | CCC1(C(=O)NS(=O)(=O)c2cccc3ccccc23)CCc2c(Br)ccc(OC)c21 (stereo not shown) [Example I-28, 4-bromo-1-ethyl-7-methoxy-N-(naphthalene-1-sulfonyl)-2,3-dihydro-1H-indene-1-carboxamide] |
| ≥ 150 | < 3 | +++ (≥350) | < 3 | O=C(NS(=O)(=O)c1cccc2ccccc12)C1(CC2CC2)CCc2c(Cl)cccc21 (stereo not shown) [Example I-29, 4-chloro-1-(cyclopropylmethyl)-N-(naphthalene-1-sulfonyl)-2,3-dihydro-1H-indene-1-carboxamide] |
